Experimental data published in patent US20150335055A1, “BEVERAGE PR[…] BASED ON PIMARICIN AND HEADSPACE GAS” (PEPSICO, INC., priority 2013, published 2015).

Tests used:
[1] = test system: pooled inoculum of strains of Saccharomyces Brettanomyces and Zygosaccharomyces; experiment: 16 week spoilage trial in carbonated mock grape beverage (3.7 and 4.5 volumes CO2), Example 1; type: cell-based; conditions: 1.1 ppm pimaricin, no cyclodextrin; for first note of spoilage: 25° C.; for incidence of spoilage (frequency, 1=100%): after 100 days
Procedure: A 16 week trial was conducted with a mock grape 12 Brix 2% grape juice mock glass “pony” 9.8 oz. bottle. Beverages were carbonated to 3.7 and 4.5 volumes. Five containers of each CO2 level were not inoculated and served as negative controls. Five containers of each CO2 level were inoculated with a pooled inoculum of strains of Saccharomyces Brettanomyces and Zygosaccharomyces such that an initial cell density of 100 organisms per milliliter was achieved. These samples served as positive controls. Half of the remaining containers received the same inoculum and were also dosed with pimaricin to a concentration of 1.1 mg 1^−1 (mg per liter or mg/L). The remaining containers were dosed with pimaricin in complex with β-cyclodextrin in a manner that yielded a final concentration of pimaricin of 0.8 ppm. All samples were then held at 25° C. for the duration of the study. During the course of the study, pimaricin concentration was established in samples employing UV-Visible spectroscopy.

[2] = Solubility of pimaricin in aqueous solution; type: physicochemical
[3] = short exposures; cited from earlier work
[4] = test system: Zygosaccharomyces strains or Brettanomyces strains; experiment: 16 week spoilage trial in carbonated lemon-lime beverage (Sierra Mist, 3.6 volumes CO2, PET), Comparative Example 1; type: cell-based; conditions: for samples spoiled: period of the test (14 weeks, 98 days), 25° C.
Procedure: […] This beverage is carbonated to 3.6 volumes CO2 in PET containers. Negative control containers received no inoculum. Positive control samples were inoculated with either Zygosaccharomyces strains (907, 28, Marion, HP, Mt. Dew, & SM Soiler) or Brettanomyces strains Dan, H2O2, Cherry 7-UP, 1601-1, and SY-05). […] All samples were then held at 25° C. for the duration of the study. […] 33% of the samples containing 15 ppm spoiled and 100% of samples containing 5 ppm pimaricin spoiled.

[5] = test system: yeast which can spoil carbonated beverage; conditions: types of yeast which can spoil carbonated beverage; cited from earlier work
spoilage organisms = experiment: Degradation kinetic of pimaricin and onset of spoilage in carbonated beverage (Background Example 4); type: cell-based
Source text: In the absence of analytical data about the stability of pimaricin in solution, the interpretation of the data about the stability of product over time can be interpreted in one of two ways. Either no degradation of pimaricin occurred and product spoiled because of the outgrowth of those few organisms that were tolerant to the quantity of pimaricin present or spoilage occurred as a consequence of the survival and then outgrowth of organisms as a consequence of the degradation of pimaricin below some critical concentration. A strong argument for the latter is offered in Background Example 4, FIG. 4. Herein, the degradation of pimaricin is tracked from initial concentrations of 13 and 25 ppm in parallel with previously established incidence of spoilage in samples that initially contain 13 and 25 ppm. […] Product contains in excess of 2000 ppb O2.
In the presence of structurally intact pimaricin, spoilage organisms are inhibited from growth. Once the integrity of the bulk pimaricin is compromised, the organisms are able to grow. Regardless of initial concentration, pimaricin in 3.7 volume CO2 beverage will degrade at the same rate. Commonly, carbonated beverages contain a substantial amount of oxygen (>3500 ppb). Given a starting concentration of 13.5 ppm, the degradation of pimaricin is such that the concentration of pimaricin falls to below the minimum inhibitory concentration ( . . . ) at around 80 days. At this time, spoilage organisms begin to grow and induce spoilage (χ).

(IR,3S,5R,7R,8E,12R,14E,16E,18E,20E,22R,24S,25R,26S)-{[3S,4S,5S,6R)-4-amino-3,5-dihydroxy-6-methyloxan-2-yl]oxy}-1,3,26 trihydroxy-12-methyl-10-oxo-6,11,28-trioxatricyclo[22.3.1.0^5,7]octacosa-8,14,16,18,20 pentaene-25-carboxylic acid [pimaricin]
first note of spoilage ([1]; 3.7 volumes CO2): 20 days
first note of spoilage ([1]; 4.5 volumes CO2): 20 days
incidence of spoilage (frequency, 1=100%) ([1]; 3.7 volumes CO2): 0.6
incidence of spoilage (frequency, 1=100%) ([1]; 4.5 volumes CO2): 0.6
normal limit of solubility ([2]; beverage of acid pH, 25° C.): 20-25 ppm
limit of solubility ([2]; high acid beverage): 25 ppm
limit of solubility in aqueous solution ([2]; in the absence of β-cyclodextrin): 20-25 mg 1^−1
temperature to which antimicrobial activity is stable [3]: ≥ 120 ° F.
Onset of Spoilage ([4]; 5 ppm Pimaricin, week 0, day 0): 0%
Onset of Spoilage ([4]; 5 ppm Pimaricin, week 1, day 7): 0%
Onset of Spoilage ([4]; 5 ppm Pimaricin, week 2, day 14): 0%
Onset of Spoilage ([4]; 5 ppm Pimaricin, week 3, day 21): 0%
Onset of Spoilage ([4]; 5 ppm Pimaricin, week 4, day 28): 0%
Onset of Spoilage ([4]; 5 ppm Pimaricin, week 5, day 35): 0%
Onset of Spoilage ([4]; 5 ppm Pimaricin, week 6, day 42): 0%
Onset of Spoilage ([4]; 5 ppm Pimaricin, week 7, day 49): 0%
Onset of Spoilage ([4]; 5 ppm Pimaricin, week 8, day 56): 0%
Onset of Spoilage ([4]; 5 ppm Pimaricin, week 9, day 63): 75%
Onset of Spoilage ([4]; 5 ppm Pimaricin, week 10, day 70): 75%
Onset of Spoilage ([4]; 5 ppm Pimaricin, week 11, day 77): 100%
Onset of Spoilage ([4]; 5 ppm Pimaricin, week 12, day 84): 100%
Onset of Spoilage ([4]; 5 ppm Pimaricin, week 13, day 91): 100%
Onset of Spoilage ([4]; 5 ppm Pimaricin, week 14, day 98): 100%
Onset of Spoilage ([4]; 5 ppm Pimaricin, week 15, day 105): 100%
Onset of Spoilage ([4]; 5 ppm Pimaricin, week 16, day 112): 100%
Onset of Spoilage ([4]; 5 ppm Pimaricin, week 17, day 119): 100%
Onset of Spoilage ([4]; 5 ppm Pimaricin, week 18, day 126): 100%
Onset of Spoilage ([4]; 5 ppm Pimaricin, week 19, day 133): 100%
Onset of Spoilage ([4]; 5 ppm Pimaricin, week 20, day 140): 100%
Onset of Spoilage ([4]; 5 ppm Pimaricin, week 21, day 147): 100%
Onset of Spoilage ([4]; 5 ppm Pimaricin, week 22, day 154): 100%
Onset of Spoilage ([4]; 5 ppm Pimaricin, week 23, day 161): 100%
Onset of Spoilage ([4]; 5 ppm Pimaricin, week 24, day 168): 100%
samples spoiled ([4]; 5 ppm pimaricin): 100%
Onset of Spoilage ([4]; 15 ppm Pimaricin, week 0, day 0): 0%
Onset of Spoilage ([4]; 15 ppm Pimaricin, week 1, day 7): 0%
Onset of Spoilage ([4]; 15 ppm Pimaricin, week 2, day 14): 0%
Onset of Spoilage ([4]; 15 ppm Pimaricin, week 3, day 21): 0%
Onset of Spoilage ([4]; 15 ppm Pimaricin, week 4, day 28): 0%
Onset of Spoilage ([4]; 15 ppm Pimaricin, week 5, day 35): 0%
Onset of Spoilage ([4]; 15 ppm Pimaricin, week 6, day 42): 0%
Onset of Spoilage ([4]; 15 ppm Pimaricin, week 7, day 49): 0%
Onset of Spoilage ([4]; 15 ppm Pimaricin, week 8, day 56): 0%
Onset of Spoilage ([4]; 15 ppm Pimaricin, week 9, day 63): 0%
Onset of Spoilage ([4]; 15 ppm Pimaricin, week 10, day 70): 0%
Onset of Spoilage ([4]; 15 ppm Pimaricin, week 11, day 77): 33%
Onset of Spoilage ([4]; 15 ppm Pimaricin, week 12, day 84): 33%
Onset of Spoilage ([4]; 15 ppm Pimaricin, week 13, day 91): 33%
Onset of Spoilage ([4]; 15 ppm Pimaricin, week 14, day 98): 33%
Onset of Spoilage ([4]; 15 ppm Pimaricin, week 15, day 105): 33%
Onset of Spoilage ([4]; 15 ppm Pimaricin, week 16, day 112): 33%
Onset of Spoilage ([4]; 15 ppm Pimaricin, week 17, day 119): 33%
Onset of Spoilage ([4]; 15 ppm Pimaricin, week 18, day 126): 33%
Onset of Spoilage ([4]; 15 ppm Pimaricin, week 19, day 133): 33%
Onset of Spoilage ([4]; 15 ppm Pimaricin, week 20, day 140): 33%
Onset of Spoilage ([4]; 15 ppm Pimaricin, week 21, day 147): 33%
Onset of Spoilage ([4]; 15 ppm Pimaricin, week 22, day 154): 33%
Onset of Spoilage ([4]; 15 ppm Pimaricin, week 23, day 161): 33%
Onset of Spoilage ([4]; 15 ppm Pimaricin, week 24, day 168): 33%
samples spoiled ([4]; 15 ppm pimaricin): 33%
Onset of Spoilage ([4]; 25 ppm Pimaricin, week 0, day 0): 0%
Onset of Spoilage ([4]; 25 ppm Pimaricin, week 1, day 7): 0%
Onset of Spoilage ([4]; 25 ppm Pimaricin, week 2, day 14): 0%
Onset of Spoilage ([4]; 25 ppm Pimaricin, week 3, day 21): 0%
Onset of Spoilage ([4]; 25 ppm Pimaricin, week 4, day 28): 0%
Onset of Spoilage ([4]; 25 ppm Pimaricin, week 5, day 35): 0%
Onset of Spoilage ([4]; 25 ppm Pimaricin, week 6, day 42): 0%
Onset of Spoilage ([4]; 25 ppm Pimaricin, week 7, day 49): 0%
Onset of Spoilage ([4]; 25 ppm Pimaricin, week 8, day 56): 0%
Onset of Spoilage ([4]; 25 ppm Pimaricin, week 9, day 63): 0%
Onset of Spoilage ([4]; 25 ppm Pimaricin, week 10, day 70): 0%
Onset of Spoilage ([4]; 25 ppm Pimaricin, week 11, day 77): 0%
Onset of Spoilage ([4]; 25 ppm Pimaricin, week 12, day 84): 0%
Onset of Spoilage ([4]; 25 ppm Pimaricin, week 13, day 91): 0%
Onset of Spoilage ([4]; 25 ppm Pimaricin, week 14, day 98): 0%
Onset of Spoilage ([4]; 25 ppm Pimaricin, week 15, day 105): 0%
Onset of Spoilage ([4]; 25 ppm Pimaricin, week 16, day 112): 0%
Onset of Spoilage ([4]; 25 ppm Pimaricin, week 17, day 119): 0%
Onset of Spoilage ([4]; 25 ppm Pimaricin, week 18, day 126): 0%
Onset of Spoilage ([4]; 25 ppm Pimaricin, week 19, day 133): 0%
Onset of Spoilage ([4]; 25 ppm Pimaricin, week 20, day 140): 0%
Onset of Spoilage ([4]; 25 ppm Pimaricin, week 21, day 147): 0%
Onset of Spoilage ([4]; 25 ppm Pimaricin, week 22, day 154): 0%
Onset of Spoilage ([4]; 25 ppm Pimaricin, week 23, day 161): 0%
Onset of Spoilage ([4]; 25 ppm Pimaricin, week 24, day 168): 0%
samples spoiled ([4]; equivalent of 30 mg pimaricin per ml): None
freedom from spoilage for duration of shelf-life ([4]; samples which contained 25 ppm pimaricin): remain free of spoilage
reported MIC values [5]: ≥ 10 ppm
critical concentration of pimaricin (no spoilage above it) (spoilage organisms; 3.7 volume CO2 beverage): about 2 ppm
incubation time before spoilage (spoilage organisms; initial concentration 13 ppm pimaricin, carbonated beverage 3.6 volumes CO2): > 80 days
incidence of spoilage (spoilage organisms; initial concentration 13 ppm pimaricin, carbonated beverage 3.6 volumes CO2, in excess of 2000 ppb O2): 33%
pimaricin concentration below which spoilage ensues (spoilage organisms; intersect of time of onset of spoilage and degradation plot for 13 ppm pimaricin): 1.5-2 ppm
spoilage among samples evaluated (spoilage organisms; product containing 25 ppm pimaricin, carbonated beverage 3.6 volumes CO2): did not suffer any spoilage
time at which pimaricin concentration falls below the minimum inhibitory concentration (spoilage organisms; starting concentration 13.5 ppm, 3.7 volume CO2 beverage): around 80 days
spoilage from outgrowth of previously inoculated organisms (spoilage organisms; starting concentration 25 ppm pimaricin, 3.7 volume CO2 beverage): no ensuing spoilage
